For experiment [1], the target named is GDP-bound NRAS wild-type protein (Homo sapiens, UniProt P01111). In words: Binding to NRAS by surface plasmon resonance (SPR), Single Cycle Kinetics. To be noted: KD ratio, GDP-bound NRAS wild-type vs GDP-bound KRAS wild-type, SPR.
For experiment [2], the target named is GDP-bound HRAS wild-type protein (Homo sapiens, UniProt P01112). Kind of experiment: Binding to HRAS by surface plasmon resonance (SPR), Single Cycle Kinetics. To be noted: KD ratio, GDP-bound HRAS wild-type vs GDP-bound KRAS wild-type, SPR. A general note: In SPR one partner is held on a chip, and binding of the other changes the refractive index at the surface.
Sequence of GDP-bound HRAS wild-type protein (P01112 whole entry): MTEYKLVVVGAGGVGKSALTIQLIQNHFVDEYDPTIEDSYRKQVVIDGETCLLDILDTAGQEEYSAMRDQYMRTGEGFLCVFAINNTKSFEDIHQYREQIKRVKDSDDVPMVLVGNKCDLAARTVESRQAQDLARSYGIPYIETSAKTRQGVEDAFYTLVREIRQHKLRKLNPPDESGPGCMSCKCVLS

Sequence of GDP-bound NRAS wild-type protein (P01111 whole entry): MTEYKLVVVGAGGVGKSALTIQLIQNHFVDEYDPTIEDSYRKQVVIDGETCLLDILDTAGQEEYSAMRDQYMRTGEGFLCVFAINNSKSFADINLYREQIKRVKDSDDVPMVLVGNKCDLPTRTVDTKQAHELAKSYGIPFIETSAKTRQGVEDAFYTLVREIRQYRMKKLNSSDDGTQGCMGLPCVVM

Consider `CCO[C@@H]1C[C@H]2C(=O)NC3(CCC3)C(=O)N(C)[C@@H](C3CCCC3)C(=O)N(C)[C@H](C(=O)N(C)C)CC(=O)N(C)[C@@H](CC)C(=O)N[C@@H]([C@@H](C)CC)C(=O)N(C)CC(=O)N(C)[C@H]3CC(C)=CCN(C3=O)[C@@H](Cc3ccc(C(F)(F)F)cc3)C(=O)N(C)CC(=O)N[C@@H](CCc3cc(F)c(C(F)(F)F)c(F)c3)C(=O)N2C1` [PP1034], for which, in experiment [1], the “NRAS/KRAS (ratio of KD value with respect to NRAS to KD value with respect to KRAS)” value is “C (A compound having a KD ratio of 0.1 or more and less than 3 is denoted as C)”. Also, the “HRAS/KRAS (ratio of KD value with respect to HRAS to KD value with respect to KRAS)” value in experiment [2] is “C (A compound having a KD ratio of 0.1 or more and less than 3 is denoted as C)”.

For `CCO[C@@H]1C[C@H]2C(=O)NC3(CCC3)C(=O)N(C)[C@@H](C3CCCC3)C(=O)N(C)[C@H](C(=O)N(C)C)CC(=O)N(C)[C@@H](CC)C(=O)N[C@@H]([C@@H](C)CC)C(=O)N3CC[C@H]3C(=O)N(C)[C@H]3CC(C)=CCN(C3=O)[C@@H](Cc3ccc(C(F)(F)F)cc3)C(=O)N(C)CC(=O)N[C@@H](CCc3cc(F)c(C(F)(F)F)c(F)c3)C(=O)N2C1` [PP1035], the “NRAS/KRAS (ratio of KD value with respect to NRAS to KD value with respect to KRAS)” value in experiment [1] was “C (A compound having a KD ratio of 0.1 or more and less than 3 is denoted as C)”. Also, the “HRAS/KRAS (ratio of KD value with respect to HRAS to KD value with respect to KRAS)” value in experiment [2] was “C (A compound having a KD ratio of 0.1 or more and less than 3 is denoted as C)”.

Regarding `CCO[C@@H]1C[C@H]2C(=O)NC3(CCCC3)C(=O)N(C)[C@@H](C3CCCC3)C(=O)N(C)[C@H](C(=O)N(C)C)CC(=O)N(C)[C@@H](CC)C(=O)N[C@@H]([C@@H](C)CC)C(=O)N(C)CC(=O)N(C)[C@H]3CC(C)=CCN(C3=O)[C@@H](Cc3ccc(C(F)(F)F)cc3)C(=O)N(C)CC(=O)N[C@@H](CCc3cc(F)c(C(F)(F)F)c(F)c3)C(=O)N2C1` [PP1036], the “NRAS/KRAS (ratio of KD value with respect to NRAS to KD value with respect to KRAS)” value in experiment [1] was “C (A compound having a KD ratio of 0.1 or more and less than 3 is denoted as C)”. For the same compound, the “HRAS/KRAS (ratio of KD value with respect to HRAS to KD value with respect to KRAS)” value in experiment [2] was “C (A compound having a KD ratio of 0.1 or more and less than 3 is denoted as C)”.

With `CCO[C@@H]1C[C@H]2C(=O)NC3(CCC3)C(=O)N(C)[C@@H](C3CCCC3)C(=O)N(C)[C@H](C(=O)N(C)C)CC(=O)N(CC)[C@@H](CC(C)C)C(=O)N[C@@H]([C@@H](C)CC)C(=O)N(C)CC(=O)N(C)[C@H]3CC(C)=CCN(C3=O)[C@@H](Cc3ccc(C(F)(F)F)cc3)C(=O)N(C)CC(=O)N[C@@H](CCc3cc(F)c(C(F)(F)F)c(F)c3)C(=O)N2C1` [PP1037], in experiment [1], the “NRAS/KRAS (ratio of KD value with respect to NRAS to KD value with respect to KRAS)” value is “C (A compound having a KD ratio of 0.1 or more and less than 3 is denoted as C)”. Also, the “HRAS/KRAS (ratio of KD value with respect to HRAS to KD value with respect to KRAS)” value in experiment [2] was “C (A compound having a KD ratio of 0.1 or more and less than 3 is denoted as C)”.

Consider `CCO[C@@H]1C[C@H]2C(=O)NC3(CCCC3)C(=O)N(C)[C@@H](C3CCCC3)C(=O)N(C)[C@H](C(=O)N3CCOCC3)CC(=O)N(C)[C@@H](CC(C)C)C(=O)N[C@@H]([C@@H](C)CC)C(=O)N(C)CC(=O)N(C)[C@H]3CC(C)=CCN(C3=O)[C@@H](Cc3ccc(C(F)(F)F)cc3)C(=O)N(C)CC(=O)N[C@@H](CCc3cc(F)c(C(F)(F)F)c(F)c3)C(=O)N2C1` [PP1038], for which the “NRAS/KRAS (ratio of KD value with respect to NRAS to KD value with respect to KRAS)” value in experiment [1] was “C (A compound having a KD ratio of 0.1 or more and less than 3 is denoted as C)”. The “HRAS/KRAS (ratio of KD value with respect to HRAS to KD value with respect to KRAS)” value in experiment [2] was “C (A compound having a KD ratio of 0.1 or more and less than 3 is denoted as C)”.

As for `CCO[C@@H]1C[C@H]2C(=O)NC3(CCC3)C(=O)N(C)[C@@H](C3CCCC3)C(=O)N(C)[C@H](C(=O)N3CCOCC3)CC(=O)N(C)[C@@H](CC(C)C)C(=O)N[C@@H]([C@@H](C)CC)C(=O)N(C)CC(=O)N(C)[C@H]3CC(C)=CCN(C3=O)[C@@H](Cc3ccc(C(F)(F)F)cc3)C(=O)N(C)CC(=O)N[C@@H](CCc3cc(F)c(C(F)(F)F)c(F)c3)C(=O)N2C1` [PP1039], in experiment [1], the “NRAS/KRAS (ratio of KD value with respect to NRAS to KD value with respect to KRAS)” value was “C (A compound having a KD ratio of 0.1 or more and less than 3 is denoted as C)”. Moreover, the “HRAS/KRAS (ratio of KD value with respect to HRAS to KD value with respect to KRAS)” value in experiment [2] was “C (A compound having a KD ratio of 0.1 or more and less than 3 is denoted as C)”.

Take `CCO[C@@H]1C[C@H]2C(=O)NC3(CCC3)C(=O)N(C)[C@@H](C3CCCC3)C(=O)N(C)[C@H](C(=O)N3CCOCC3)CC(=O)N(C)[C@@H](CC(C)C)C(=O)N[C@@H]([C@@H](C)CC)C(=O)N3CC[C@H]3C(=O)N(C)[C@H]3CC(C)=CCN(C3=O)[C@@H](Cc3ccc(C(F)(F)F)cc3)C(=O)N(C)CC(=O)N[C@@H](CCc3cc(F)c(C(F)(F)F)c(F)c3)C(=O)N2C1` [PP1040]: the “NRAS/KRAS (ratio of KD value with respect to NRAS to KD value with respect to KRAS)” value in experiment [1] was “C (A compound having a KD ratio of 0.1 or more and less than 3 is denoted as C)”. The “HRAS/KRAS (ratio of KD value with respect to HRAS to KD value with respect to KRAS)” value in experiment [2] was “C (A compound having a KD ratio of 0.1 or more and less than 3 is denoted as C)”.

In the case of `CCO[C@@H]1C[C@H]2C(=O)NC3(CCC3)C(=O)N(C)[C@@H](C3CCCC3)C(=O)N(C)[C@H](C(=O)N3CCOCC3)CC(=O)N(C)[C@@H](CC)C(=O)N[C@@H]([C@@H](C)CC)C(=O)N(C)CC(=O)N(C)[C@H]3CC(C)=CCN(C3=O)[C@@H](Cc3ccc(C(F)(F)F)cc3)C(=O)N(C)CC(=O)N[C@@H](CCc3cc(F)c(C(F)(F)F)c(F)c3)C(=O)N2C1` [PP1041], the “NRAS/KRAS (ratio of KD value with respect to NRAS to KD value with respect to KRAS)” value in experiment [1] is “C (A compound having a KD ratio of 0.1 or more and less than 3 is denoted as C)”. In addition, in experiment [2], the “HRAS/KRAS (ratio of KD value with respect to HRAS to KD value with respect to KRAS)” value was “C (A compound having a KD ratio of 0.1 or more and less than 3 is denoted as C)”.

As for `CCO[C@@H]1C[C@H]2C(=O)NC3(CCC3)C(=O)N(C)[C@@H](C3CCCC3)C(=O)N(C)[C@H](C(=O)N3CCOCC3)CC(=O)N(C)[C@@H](CC)C(=O)N[C@@H]([C@@H](C)CC)C(=O)N3CC[C@H]3C(=O)N(C)[C@H]3CC(C)=CCN(C3=O)[C@@H](Cc3ccc(C(F)(F)F)cc3)C(=O)N(C)CC(=O)N[C@@H](CCc3cc(F)c(C(F)(F)F)c(F)c3)C(=O)N2C1` [PP1042], in experiment [1], the “NRAS/KRAS (ratio of KD value with respect to NRAS to KD value with respect to KRAS)” value is “C (A compound having a KD ratio of 0.1 or more and less than 3 is denoted as C)”. Also, in experiment [2], the “HRAS/KRAS (ratio of KD value with respect to HRAS to KD value with respect to KRAS)” value was “C (A compound having a KD ratio of 0.1 or more and less than 3 is denoted as C)”.

For `CCO[C@@H]1C[C@H]2C(=O)NC3(CCCC3)C(=O)N(C)[C@@H](C3CCCC3)C(=O)N(C)[C@H](C(=O)N3CCOCC3)CC(=O)N(C)[C@@H](CC)C(=O)N[C@@H]([C@@H](C)CC)C(=O)N(C)CC(=O)N(C)[C@H]3CC(C)=CCN(C3=O)[C@@H](Cc3ccc(C(F)(F)F)cc3)C(=O)N(C)CC(=O)N[C@@H](CCc3cc(F)c(C(F)(F)F)c(F)c3)C(=O)N2C1` [PP1043], the “NRAS/KRAS (ratio of KD value with respect to NRAS to KD value with respect to KRAS)” value in experiment [1] is “C (A compound having a KD ratio of 0.1 or more and less than 3 is denoted as C)”. Moreover, the “HRAS/KRAS (ratio of KD value with respect to HRAS to KD value with respect to KRAS)” value in experiment [2] is “C (A compound having a KD ratio of 0.1 or more and less than 3 is denoted as C)”.

With `CCO[C@@H]1C[C@H]2C(=O)NC3(CCC3)C(=O)N(C)[C@@H](C3CCCC3)C(=O)N(C)[C@H](C(=O)N3CCOCC3)CC(=O)N(CC)[C@@H](CC(C)C)C(=O)N[C@@H]([C@@H](C)CC)C(=O)N(C)CC(=O)N(C)[C@H]3CC(C)=CCN(C3=O)[C@@H](Cc3ccc(C(F)(F)F)cc3)C(=O)N(C)CC(=O)N[C@@H](CCc3cc(F)c(C(F)(F)F)c(F)c3)C(=O)N2C1` [PP1044], the “NRAS/KRAS (ratio of KD value with respect to NRAS to KD value with respect to KRAS)” value in experiment [1] was “C (A compound having a KD ratio of 0.1 or more and less than 3 is denoted as C)”. Moreover, the “HRAS/KRAS (ratio of KD value with respect to HRAS to KD value with respect to KRAS)” value in experiment [2] is “C (A compound having a KD ratio of 0.1 or more and less than 3 is denoted as C)”.

With `CCO[C@@H]1C[C@H]2C(=O)NC3(CCCC3)C(=O)N(C)[C@@H](C3CCCC3)C(=O)N(C)[C@H](C(=O)N(C)C)CC(=O)N(C)[C@@H](CC(C)C)C(=O)N[C@@H]([C@@H](C)CC)C(=O)N(C)CC(=O)N(C)[C@H]3CC(C)=C(C)CN(C3=O)[C@@H](Cc3ccc(C(F)(F)F)cc3)C(=O)N(C)CC(=O)N[C@@H](CCc3cc(F)c(C(F)(F)F)c(F)c3)C(=O)N2C1` [PP1045], the “NRAS/KRAS (ratio of KD value with respect to NRAS to KD value with respect to KRAS)” value in experiment [1] was “C (A compound having a KD ratio of 0.1 or more and less than 3 is denoted as C)”. Moreover, the “HRAS/KRAS (ratio of KD value with respect to HRAS to KD value with respect to KRAS)” value in experiment [2] was “C (A compound having a KD ratio of 0.1 or more and less than 3 is denoted as C)”.

Regarding `CCO[C@@H]1C[C@H]2C(=O)NC3(CCC3)C(=O)N(C)[C@@H](C3CCCC3)C(=O)N(C)[C@H](C(=O)N(C)C)CC(=O)N(C)[C@@H](CC(C)C)C(=O)N[C@@H]([C@@H](C)CC)C(=O)N3CC[C@H]3C(=O)N(C)[C@H]3CC(C)=C(C)CN(C3=O)[C@@H](Cc3ccc(C(F)(F)F)cc3)C(=O)N(C)CC(=O)N[C@@H](CCc3cc(F)c(C(F)(F)F)c(F)c3)C(=O)N2C1` [PP1047], the “NRAS/KRAS (ratio of KD value with respect to NRAS to KD value with respect to KRAS)” value in experiment [1] was “C (A compound having a KD ratio of 0.1 or more and less than 3 is denoted as C)”. The “HRAS/KRAS (ratio of KD value with respect to HRAS to KD value with respect to KRAS)” value in experiment [2] is “C (A compound having a KD ratio of 0.1 or more and less than 3 is denoted as C)”.

`CCO[C@@H]1C[C@H]2C(=O)NC3(CCC3)C(=O)N(C)[C@@H](C3CCCC3)C(=O)N(C)[C@H](C(=O)N(C)C)CC(=O)N(C)[C@@H](CC)C(=O)N[C@@H]([C@@H](C)CC)C(=O)N(C)CC(=O)N(C)[C@H]3CC(C)=C(C)CN(C3=O)[C@@H](Cc3ccc(C(F)(F)F)cc3)C(=O)N(C)CC(=O)N[C@@H](CCc3cc(F)c(C(F)(F)F)c(F)c3)C(=O)N2C1` [PP1048]: in experiment [1], the “NRAS/KRAS (ratio of KD value with respect to NRAS to KD value with respect to KRAS)” value was “C (A compound having a KD ratio of 0.1 or more and less than 3 is denoted as C)”. Moreover, the “HRAS/KRAS (ratio of KD value with respect to HRAS to KD value with respect to KRAS)” value in experiment [2] is “C (A compound having a KD ratio of 0.1 or more and less than 3 is denoted as C)”.

(Values after patent publication US20250230193A1, “CYCLIC COMPOUND HAVING SELECTIVE KRAS INHIBITORY EFFECT ON HRAS AND NRAS” (CHUGAI SEIYAKU KABUSHIKI KAISHA, priority 2022, published 2025).)
